US9579334B2, “Iminosugars and methods of treating viral diseases” (Emergent Virology LLC, priority 2009, dated 2017)

What was measured:
Vero cells = assay: Cytotoxicity towards Vero cells, LDH assay; assay type: cell-based, African green monkey; conditions: for toxicity to the Vero cells: 0.122 up to 500 uM
Experimental: Procedure. NB-DNJ, NN-DNJ and N7-O-DNJ at concentrations from 0.122 up to 500 uM were tested for cytotoxicity towards Vero cells. Vero cells (Afrika green monkey kidney epithelial cell line) obtained from American Type Culture Collection (ATCC, Manassas, Va.) were plated in cell culture treated 96-well flat bottom plates 24 hr prior to assay. Test were done in modified Eagle medium, supplemented with 2% fetal bovine serum, 2 mM L-glutamine, 100 U/ml penicillin, 100 ug/ml streptomycin, starting at 500 μM compounds, decreasing to 0.122 uM. Cells were cultured at 37° C., 5% CO2 incubator and the plates were assayed by LDH assay (CytoTox96, Promega, Wis.) according to the manufacturer's recommendations for induced cellular damage (release of cytoplasmic enzyme lactate dehydrogenase). OD readings were used to calculate and compare percent cytopathic effect of cells treated with compounds or controls. […] NN-DNJ begins to show toxicity to the cells at concentrations above ˜20 uM.

Dengue 2 strain S221 = assay: Protection of AG129 mice against Dengue virus (survival); assay type: in vivo
Experimental: FIGS. 10 and 11 A-C show protection of mice against Dengue virus by UV-4 (N9-DNJ). In this model, AG129 mice, which are 129/Sv mice lacking receptors for both alpha/beta interferon and IFN-gamma, are infected with Dengue 2 strain S221 via intravenous injection. The mice die of TNF-a mediated acute/early death 4-5 days after infection, see Shresta, S., et al., J Virol, 2006. 80(20): p. 10208-17. Each experiment group contained 5 mice sex matched and 5-6 weeks old. The mice were injected intravenously via the tail vein with 10^11 genomic equivalents of DENV2 strain S221 30 min after the first N9-DNJ dose was administered orally. The N9-DNJ was administered orally twice daily at 200, 100, 50 and 10 mg/kg. The antiviral compound Ribavirin 100 mg/kg was given subcutaneously once daily and included as a positive control together with a PBS-only group. Animals displaying severe illness during the experiment (as determined by 20% weight loss, extreme lethargy, ruffled coat, or paralysis) were euthanized.

CCCOCCCCCCN1C[C@H](O)[C@@H](O)[C@H](O)[C@H]1CO [N7-O-DNJ, N-(7-Oxadecyl)deoxynojirimycin]
toxicity to the Vero cells (Vero cells): non-toxic

COCCCCCCCCCN1C[C@H](O)[C@@H](O)[C@H](O)[C@H]1CO [N9-DNJ, N-(9-Methoxynonyl) deoxynojirimycin]
survival, p vs. PBS (Dengue 2 strain S221; 10 mg/kg orally twice daily): 0.034
survival, p vs. PBS (Dengue 2 strain S221; 100 mg/kg orally twice daily): 0.002
survival (Dengue 2 strain S221; DENV2 S221 i.v., orally twice daily at 200, 100, 50 and 10 mg/kg, all drug concentrations): statistically significant improvement in survival

CCCCN1C[C@H](O)[C@@H](O)[C@H](O)[C@H]1CO [NB-DNJ, N-Butyl deoxynojirimycin]
toxicity to the Vero cells (Vero cells): non-toxic

CCCCCCCCCN1C[C@H](O)[C@@H](O)[C@H](O)[C@H]1CO [NN-DNJ, N-Nonyl dexoynojirimycin]
concentration above which toxicity to the cells begins to show (Vero cells; Vero cells): > 20 µM
